Laboratory results taken from patent US7098204B2 (C.N.R.S., priority 1999, dated 2006).
Values after ≈ are worked out from the molar mass of the structure shown.

Experiments:
[1] = test system: brain, SF-295; test: Human cancer cell line SF-295 proliferation; format: cell-based
[2] = test system: lung, H460; test: Human cancer cell line H460 proliferation; format: cell-based; conditions: NCI-H460
[3] = test system: HT29-18-C1 cells; test: Flow cytometric cell cycle analysis, HT29-18-C1; format: cell-based, human
Protocol: Cell culture and treatments. HT29-18-C1, a subclone of the human colon adenocarcinoma cell line HT29, was cultured in Dulbecco's modified Eagle's medium (Gibco-BRL) supplemented with 10% FCS, 2 mM L-glutamine (Eurobio) and […] gentamycin (Gibco-BRL) at 37° C., 10% CO2. Cells were synchronized by serum deprivation for 48 h. They were then released from growth arrest by the addition of 5% fetal calf serum (FCS). HD, prepared in DMSO, was added immediately to the medium, for 24 h and at final concentrations ranging from 0 to 80 μM. In some experiments HD was added 22 h after serum addition for an additional 24 h. In other experiments HD was added to unsynchronised cells. Cells were then washed and cultured in 5% FCS medium and counted or analysed by FACS at different times.
Cell counts and flow cytometric cell cycle analysis. Cell were counted with a hemocytometer. Cell cycle distribution was analysed by flow cytometry. […] The stained cells were analysed on a FACScan cytofluorimeter using the cellFit Software program (Becton Dickinson Immunocytometry Systems).
The results concerning the cell cycle distribution of HD-treated cells are given on FIG. 10A. […] Cells were then fixed and their cell cycle phase status was determined by FACscan analysis as described in the Experimental Procedures section. […] Cell cycle distribution was analysed every 24 h for a 72 h period. […]

[4] = molecular target: GSK-3β (Mus musculus, UniProt Q9WV60); test: MAP-1B phosphorylation by GSK-3 in cerebellar granule cells; format: cell-based, mice
Protocol: Cerebellar granule cells were isolated from newborn mice and purified according to the method of Hatten using Percoll gradients. Cells were plated onto dishes coated with poly-D-lysine (100 μg/ml) and laminin (50 μg/ml) and grown in serum-free medium for 1 day, the cultures were then treated with HD (1–100 μM) for 20 h. Cultures were fixed with 4% formaldehyde in PBS and stored in PBS at 4° C. Cells were permeabilised with 100% methanol and incubated with primary antibodies against GAP-43 and MAP-1B-P (SMI-31, Affiniti) overnight at 4° C. FITC and Texas Red conjugated secondary antibodies were used (Vector). For western blot analysis, cells were lysed in sample buffer and analysed by 8% SDS-PAGE. Proteins were transferred to nitrocellulose membranes and incubated with an antibody to MAP-1B-P (SMI-31) diluted in block solution (0.1% Tween-20, 3% dried skimmed milk in TBS) for 2 h at room temperature. HRP-conjugated secondary antibodies (Amersham) were used and proteins were visualised using the ECL system (Pierce). Blots were scanned using a flat bed scanner (UMAX Astra 1200S).

[5] = test system: HT29-18-C1 cells; test: Trypan blue dye exclusion, HT29-18-C1; format: cell-based, human
Protocol: HT29-18-C1 cells were synchronised in G1 by serum deprivation. 5% FCS was added at time 0 and cells were simultaneously treated (o) or not (o) exposed to 10 μM HD. During 24 h and thereafter cultured in 5% FCS-containing medium. Cell number was determined every 12 h for a 72 h period using a hemocytometer. The kinetics of growth inhibition are given on FIG. 9A. […] Serum-treated cells (time 0) were exposed to various HD concentrations and counted after 24 h. The results are given on FIG. 9B. The number of non-serum stimulated cells ( ? ) is indicated for comparison. […] Trypan blue dye exclusion indicated little toxicity associated with 10 and 80 μM HD at 24 h (>95% and 90% viability, respectively). This antiproliferative effect of HD appears to be reversible. In fact, cells slowly began to proliferate again after 72 h culture.

GSK-3β, sequence (Q9WV60 whole entry): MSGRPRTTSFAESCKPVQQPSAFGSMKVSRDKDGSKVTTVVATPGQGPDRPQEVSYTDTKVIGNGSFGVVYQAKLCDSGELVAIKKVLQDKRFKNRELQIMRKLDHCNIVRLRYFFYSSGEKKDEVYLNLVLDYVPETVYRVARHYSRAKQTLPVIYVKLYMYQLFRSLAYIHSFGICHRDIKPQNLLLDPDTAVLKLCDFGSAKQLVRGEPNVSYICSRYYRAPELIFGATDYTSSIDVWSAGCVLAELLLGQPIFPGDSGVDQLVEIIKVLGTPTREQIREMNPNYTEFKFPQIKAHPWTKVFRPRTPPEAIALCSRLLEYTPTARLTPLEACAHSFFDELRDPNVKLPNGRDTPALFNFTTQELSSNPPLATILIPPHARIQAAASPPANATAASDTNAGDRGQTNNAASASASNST

## NC1=NC(=O)C(=C2CCNC(=O)c3[nH]c(Br)cc32)N1 [hymenialdisine, 4-(2-amino-4-oxo-2-imidazolin-5-ylidene)-2-bromo-4,5,6,7-tetrahydropyrrolo (2,3-c) azepine-8-one]
[1]
  IC50: 38.9 µg/mL (≈ 120 µM)
[2]
  IC50: 42 µg/mL (≈ 130 µM)
[3]; 10 μM HD added 22 hr after serum, analysed 14 h later
  cell cycle distribution: accumulation of cells in G2/M
[3]; HD added with serum at time 0, 24 h
  cell cycle distribution: accumulation of cells in S phase
[4]; 1 μM, 10 μM, 25 μM, 20 h
  cell morphology and distribution of MAP-1B-P: no noticeable effect
[4]; 50 μM, 20 h
  MAP-1B-P in axonal processes: loss of MAP-1B-P from most of the axonal processes
[4]; 100 μM, 20 h
  MAP-1B-P in axonal processes: loss of MAP-1B-P from processes
[4]; increasing doses 1–100 μM
  MAP-1B-P by Western blotting: loss of MAP-1B-P in a dose-dependent manner
[5]; 10 μM HD at 24 h
  viability (trypan blue): > 95%
[5]; 80 μM HD at 24 h
  viability (trypan blue): 90%
